# Measurements reported in patent US8148391B2 (Cephalon, Inc., priority 2006, dated 2012).
# Like-named read-outs stand apart in the source and are kept apart here.
# Tests used:
# [1] = biological target: T1, baculovirus-expressed ALK (Homo sapiens, UniProt Q9UM73); assay: ALK Kinase Assay (ELISA-type, time-resolved fluorescence); format: biochemical
# T1 construct: host or cells: baculovirus expression system
# How it was run: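 Plates coated with phospholipase C-γ substrate (10 μg/mL in TBS); reaction started with 30 ng/ml ALK and run 15 min at 37° C. Phosphorylated substrate detected with Eu-N1-labeled PT66 antibody. IC50 from sigmoidal variable-slope fit of percent inhibition vs log concentration.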
# [2] = biological target: T2, c-Met (cytoplasmic domain) (Homo sapiens, UniProt P08581); assay: c-Met Kinase Assay (same methods as for ALK, with modifications); format: biochemical
# T2 construct: 10 ng/mL c-Met (cytoplasmic domain, Invitrogen Corporation #PV3143); purchased Invitrogen Corporation PV3143
# How it was run: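 Plates were coated with phospholipase C-γ substrate (10 μg/mL) in TBS, and the reaction was started with 10 ng/mL c-Met cytoplasmic domain and run 15 min at 37 °C. Phosphoproduct was detected with Eu-N1-labelled PT66 antibody. IC50 came from a variable-slope sigmoidal fit of percent inhibition vs log concentration.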
# [3] = 1 μM ATP (Km level), 30 ng/ml ALK, 37° C., 15 minutes, read-out: ALK Activity (ALK kinase inhibition, IC50 class)
# [4] = 1 μM ATP (Km level), 10 ng/mL c-Met, read-out: cMet Activity (c-Met kinase inhibition, IC50 class)
# [5] = 1 μM ATP (Km level), read-out: ALK Activity (ALK Kinase Inhibition, IC50)
# [6] = 1 μM ATP (Km level), read-out: cMet Activity (c-Met Kinase Inhibition, IC50)
# [7] = ALK kinase inhibition, 1 μM ATP (Km level), read-out: ALK Activity
# [8] = c-Met kinase inhibition, 1 μM ATP (Km level), read-out: cMet Activity
# [9] = ALK kinase inhibition, 1 μM ATP, read-out: ALK Activity
# [10] = c-Met kinase inhibition, 1 μM ATP, read-out: cMet Activity
# T1 sequence (Q9UM73 19-1620): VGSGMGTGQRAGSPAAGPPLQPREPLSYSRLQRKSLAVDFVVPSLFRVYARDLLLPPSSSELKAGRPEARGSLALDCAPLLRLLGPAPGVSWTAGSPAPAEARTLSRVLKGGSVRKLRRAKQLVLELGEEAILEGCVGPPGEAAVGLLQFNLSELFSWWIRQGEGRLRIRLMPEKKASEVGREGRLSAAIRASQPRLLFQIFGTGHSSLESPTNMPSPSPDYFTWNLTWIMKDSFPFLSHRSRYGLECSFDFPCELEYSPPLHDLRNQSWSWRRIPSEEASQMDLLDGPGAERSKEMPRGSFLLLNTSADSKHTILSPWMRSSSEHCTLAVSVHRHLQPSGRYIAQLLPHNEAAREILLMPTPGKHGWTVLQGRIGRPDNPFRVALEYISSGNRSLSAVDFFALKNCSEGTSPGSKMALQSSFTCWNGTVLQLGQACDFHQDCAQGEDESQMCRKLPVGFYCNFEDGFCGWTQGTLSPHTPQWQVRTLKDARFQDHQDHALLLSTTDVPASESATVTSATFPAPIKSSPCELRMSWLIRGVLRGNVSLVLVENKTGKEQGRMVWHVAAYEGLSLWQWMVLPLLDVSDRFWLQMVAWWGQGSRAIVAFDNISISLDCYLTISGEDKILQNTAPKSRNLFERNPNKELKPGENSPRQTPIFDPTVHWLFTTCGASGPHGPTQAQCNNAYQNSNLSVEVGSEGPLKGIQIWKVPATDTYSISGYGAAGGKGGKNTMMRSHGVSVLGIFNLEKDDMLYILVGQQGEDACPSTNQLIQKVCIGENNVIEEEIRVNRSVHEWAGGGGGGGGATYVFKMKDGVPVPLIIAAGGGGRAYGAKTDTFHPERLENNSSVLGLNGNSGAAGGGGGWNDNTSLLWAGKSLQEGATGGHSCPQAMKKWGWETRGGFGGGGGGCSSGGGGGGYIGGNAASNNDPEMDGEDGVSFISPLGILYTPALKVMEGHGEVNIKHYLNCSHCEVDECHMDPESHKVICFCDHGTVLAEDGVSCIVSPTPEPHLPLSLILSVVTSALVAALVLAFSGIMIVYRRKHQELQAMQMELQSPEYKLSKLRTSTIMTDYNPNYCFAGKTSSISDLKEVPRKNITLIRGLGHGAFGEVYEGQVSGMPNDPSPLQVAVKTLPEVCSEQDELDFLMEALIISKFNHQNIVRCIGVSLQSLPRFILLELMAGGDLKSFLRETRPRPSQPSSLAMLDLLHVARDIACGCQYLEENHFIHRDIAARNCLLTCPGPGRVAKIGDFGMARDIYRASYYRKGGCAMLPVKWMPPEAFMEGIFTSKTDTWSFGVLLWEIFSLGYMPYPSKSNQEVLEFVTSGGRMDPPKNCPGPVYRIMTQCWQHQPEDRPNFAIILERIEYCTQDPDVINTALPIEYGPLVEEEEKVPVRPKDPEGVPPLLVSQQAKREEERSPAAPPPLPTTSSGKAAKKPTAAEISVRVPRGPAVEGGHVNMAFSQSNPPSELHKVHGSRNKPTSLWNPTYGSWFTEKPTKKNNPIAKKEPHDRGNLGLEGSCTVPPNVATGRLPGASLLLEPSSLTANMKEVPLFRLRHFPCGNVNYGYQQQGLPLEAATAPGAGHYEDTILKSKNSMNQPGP
# T2 sequence (P08581 956-1390 limits assumed): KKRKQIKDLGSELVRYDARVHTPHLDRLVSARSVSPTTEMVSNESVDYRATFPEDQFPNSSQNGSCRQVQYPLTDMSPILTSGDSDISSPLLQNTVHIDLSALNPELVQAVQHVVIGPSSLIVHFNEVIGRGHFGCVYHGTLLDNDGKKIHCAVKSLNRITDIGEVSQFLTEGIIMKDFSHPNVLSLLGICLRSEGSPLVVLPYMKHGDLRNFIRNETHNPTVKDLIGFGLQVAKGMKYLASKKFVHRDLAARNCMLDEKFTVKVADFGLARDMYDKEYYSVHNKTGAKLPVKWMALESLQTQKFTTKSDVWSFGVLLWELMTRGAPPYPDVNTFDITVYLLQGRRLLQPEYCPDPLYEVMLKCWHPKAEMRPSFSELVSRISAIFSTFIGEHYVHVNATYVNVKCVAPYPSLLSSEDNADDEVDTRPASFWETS
compound,measurement,setting,value
"CNC(=O)c1cccc(F)c1Nc1nc(Nc2ccc3c(c2)NCC(NCCOC)CC3(C)C)ncc1Cl (stereo not shown) [Example 1294, 2-{5-Chloro-2-[3-(2-methoxy-ethylamino)-5,5-dimethyl-2,3,4,5-tetrahydro-1H-1-benzazepin-8-ylamino]-pyrimidin-4-ylamino}-3-fluoro-N-methyl-benzamide]",IC50,[1]; [3],< 100 nM
same,IC50,[2]; [4],< 100 nM
"CNC(=O)c1ccccc1Nc1nc(Nc2ccc3c(c2)CCC(NCC(F)F)CC3)ncc1Cl (stereo not shown) [Example 660, 2-{5-Chloro-2-[7-(2,2-difluoro-ethylamino)-6,7,8,9-tetrahydro-5H-benzocyclohepten-2-ylamino]-pyrimidin-4-ylamino}-N-methyl-benzamide]",IC50,[1]; [5],< 100 nM
same,IC50,[2]; [6],< 100 nM
"CNS(=O)(=O)c1ccccc1Nc1nc(Nc2ccc3c(c2)CCCC(=O)N3CC(=O)OC)ncc1Cl [Example 8, {7-[5-Chloro-4-(2-methylsulfamoyl-phenylamino)-pyrimidin-2-ylamino]-2-oxo-2,3,4,5-tetrahydro-benzo[b]azepin-1-yl}-acetic acid methyl ester]",IC50,[1]; [7],< 100 nM
same,IC50,[2]; [8],< 100 nM
"CNC(=O)c1ccccc1Nc1nc(Nc2ccc(OC)c3c2NC(=O)CCC3)ncc1Cl [Example 18, 2-[5-Chloro-2-(6-methoxy-2-oxo-2,3,4,5-tetrahydro-1H-benzo[b]azepin-9-ylamino)-pyrimidin-4-ylamino]-N-methyl-benzamide]",IC50,[1]; [7],< 100 nM
same,IC50,[2]; [8],1000 to 10000 nM
"CNC(=O)c1cccc(Cl)c1Nc1nc(Nc2ccc3c(c2)-c2nccn2CCC3)ncc1Cl [Example 1845, 2-[5-Chloro-2-(5,6-dihydro-4H-1,3a-diaza-benzo[e]azulen-9-ylamino)-pyrimidin-4-ylamino]-3-chloro-N-methyl-benzamide]",IC50,[1]; [9],100 to 1000 nM
same,IC50,[2]; [10],100 to 1000 nM
"COCCN1CCc2ccc(Nc3ncc(Cl)c(Nc4ccccc4OCCN4CCOCC4)n3)cc2CC1 [Example 1466, 5-Chloro-N*2*-[3-(2-methoxy-ethyl)-2,3,4,5-tetrahydro-1H-enzo[d]azepin-7-yl]-N*4*-[2-(2-morpholin-4-yl-ethoxy)-phenyl]-pyrimidine-2,4-diamine]",IC50,[1]; [9],1000 to 10000 nM
same,IC50,[2]; [10],> 10000 nM
"CCN1CCc2ccc(Nc3ncc(Cl)c(Nc4ccccc4NS(C)(=O)=O)n3)c(OC)c2CC1 [Example 233, N-{2-[5-Chloro-2-(3-ethyl-6-methoxy-2,3,4,5-tetrahydro-1H-benzo[d]azepin-7-ylamino)-pyrimidin-4-ylamino]-phenyl}-methanesulfonamide]",IC50,[1]; [7],< 100 nM
same,IC50,[2]; [8],> 10000 nM
"CN1CCN(C)c2cccc(Nc3ncc(Cl)c(N[C@@H]4CCCC[C@H]4NS(C)(=O)=O)n3)c2C1=O [Example 214, N-{(1R,2R)-2-[5-Chloro-2-(1,4-dimethyl-5-oxo-2,3,4,5-tetrahydro-1H-benzo[e][1,4]diazepin-6-ylamino)-pyrimidin-4-ylamino]-cyclohexyl}-methanesulfonamide]",IC50,[1]; [7],100 to 1000 nM
same,IC50,[2]; [8],1000 to 10000 nM
"CCN1C(=O)C(NC(=O)C(F)(F)F)CC(C)(C)c2ccc(Nc3ncc(Cl)c(Nc4c(F)cccc4C(=O)NC)n3)cc21 (stereo not shown) [Example 1642, 2-{5-Chloro-2-[1-ethyl-5,5-dimethyl-2-oxo-3-(2,2,2-trifluoro-acetylamino)-2,3,4,5-tetrahydro-1H-benzo[b]azepin-8-ylamino]-pyrimidin-4-ylamino}-3-fluoro-N-methyl-benzamide]",IC50,[1]; [9],100 to 1000 nM
same,IC50,[2]; [10],< 100 nM
"COc1cc2c(cc1Nc1ncc(Cl)c(Nc3c(OC)ccc4c3CN(S(C)(=O)=O)CC(=O)N4)n1)CCN(CC(=O)N(C)C)CC2 [Example 751, 2-{7-[5-Chloro-4-(4-methanesulfonyl-7-methoxy-2-oxo-2,3,4,5-tetrahydro-1H-benzo[e][1,4]diazepin-6-ylamino)-pyrimidin-2-ylamino]-8-methoxy-1,2,4,5-tetrahydro-benzo[d]azepin-3-yl}-N,Ndimethyl-acetamide]",IC50,[1]; [5],1000 to 10000 nM
same,IC50,[2]; [6],> 10000 nM
"COc1cc(N2CCOCC2)ccc1Nc1nc(Nc2ccc3c(c2)CCN(S(C)(=O)=O)CC3)ncc1Cl [Example 320, 5-Chloro-N*2*-(3-methanesulfonyl-2,3,4,5-tetrahydro-1H-benzo[d]azepin-7-yl]-N*4*-(2-methoxy-4-morpholin-4-yl-phenyl)-pyrimidine-2,4-diamine]",IC50,[1]; [7],< 100 nM
same,IC50,[2]; [8],1000 to 10000 nM
"CNC(=O)CN1CCc2cc(Nc3ncc(Cl)c(Nc4ccccc4OC)n3)c(OC)cc2CC1 [Example 1135, 2-{7-[5-Chloro-4-(2-methoxy-phenylamino)-pyrimidin-2-ylamino]-8-methoxy-1,2,4,5-tetrahydro-benzo[d]azepin-3-yl}-N-methyl-acetamide]",IC50,[1]; [3],< 100 nM
same,IC50,[2]; [4],> 10000 nM
"COCCN1CCc2ccc(OC)c(Nc3ncc(Cl)c(Nc4ccc(N5CCOCC5)cc4OC)n3)c2CC1 [Example 246, 5-Chloro-N(2)-[7-methoxy-3-(2-methoxy-ethyl)-2,3,4,5-tetrahydro-1H-benzo[d]azepin-6-yl]-N(4)-(2-methoxy-4-morpholin-4-yl-phenyl)-pyrimidine-2,4-diamine]",IC50,[1]; [7],1000 to 10000 nM
same,IC50,[2]; [8],> 10000 nM
"COCCN1CCc2ccc(Nc3ncc(Cl)c(NCC(C)NS(C)(=O)=O)n3)cc2CC1 (stereo not shown) [Example 301, N-(2-{5-Chloro-2-[3-(2-methoxy-ethyl)-2,3,4,5-tetrahydro-1H-benzo[d]azepin-7-ylamino]-pyrimidin-4-ylamino}-1-methyl-ethyl)-methanesulfonamide]",IC50,[1]; [7],100 to 1000 nM
same,IC50,[2]; [8],1000 to 10000 nM
"COCCN1CCc2ccc(Nc3ncc(Cl)c(Nc4ccccc4S(C)(=O)=O)n3)cc2CC1 [Example 1249, 5-Chloro-N(4)-(2-methanesulfonyl-phenyl)-N(2)-[3-(2-methoxy-ethyl)-2,3,4,5-tetrahydro-1H-3-benzazepin-7-yl]-pyrimidine-2,4-diamine]",IC50,[1]; [3],< 100 nM
same,IC50,[2]; [4],100 to 1000 nM
"C#CCN1CCc2ccc(Nc3ncc(Cl)c(Nc4ccccc4NS(C)(=O)=O)n3)cc2CC1 [Example 326, N-{2-[5-Chloro-2-(3-prop-2-ynyl-2,3,4,5-tetrahydro-1H-benzo[d]azepin-7-ylamino)-pyrimidin-4-ylamino]-phenyl}-methanesulfonamide]",IC50,[1]; [7],< 100 nM
same,IC50,[2]; [8],100 to 1000 nM
"COCCN1CCN(C)c2ccc(Nc3ncc(Cl)c(Nc4ccccc4NS(C)(=O)=O)n3)cc2C1 [Example 429, N-(2-{5-Chloro-2-[4-(2-methoxy-ethyl)-1-methyl-2,3,4,5-tetrahydro-1H-benzo[e][1,4]diazepin-7-ylamino]-pyrimidin-4-ylamino}-phenyl)-methanesulfonamide]",IC50,[1]; [7],< 100 nM
same,IC50,[2]; [8],100 to 1000 nM
"CNC(=O)c1ccccc1Nc1nc(Nc2cc3c(cc2OC)CCN(CCOC)CC3)ncc1Cl [Example 241, 2-{5-Chloro-2-[8-methoxy-3-(2-methoxy-ethyl)-2,3,4,5-tetrahydro-1H-benzo[d]azepin-7-ylamino]-pyrimidin-4-ylamino}-N-methyl-benzamide]",IC50,[1]; [7],< 100 nM
same,IC50,[2]; [8],100 to 1000 nM
"CNS(=O)(=O)c1ccccc1Nc1nc(Nc2ccc3c(c2)CCN(CCOC)CC3)ncc1Cl [Example 35, 2-{5-Chloro-2-[3-(2-methoxy-ethyl)-2,3,4,5-tetrahydro-1H-benzo[d]azepin-7-ylamino]-pyrimidin-4-ylamino}-N-methyl-benzenesulfonamide]",IC50,[1]; [7],< 100 nM
same,IC50,[2]; [8],100 to 1000 nM
"CNC(=O)c1ccccc1Nc1nc(Nc2ccc3c(c2)CCCC(=O)N3)ncc1Cl [Example 2, 2-[5-Chloro-2-(2-oxo-2,3,4,5-tetrahydro-1H-benzo[b]azepin-7-ylamino)-pyrimidin-4-ylamino]-N-methyl-benzamide]",IC50,[1]; [7],< 100 nM
same,IC50,[2]; [8],< 100 nM
